One experiment relates to red beet (Beta vulgaris). The experiment in a line: Greenhouse testing: foliar spray of Ethephon on crop plants, pigment content of roots at harvest. It is filed as in vivo. The note with it: for Betanin / Vulgaxanthin: greenhouse, spray rate not given. On the procedure:
Planting of varieties were staggered across several weeks to vary maturity for one spray. Two spray rates were administered across all plants on one spray date ([…]). Harvesting was done 3-4 weeks after spray. Initial visualization was performed prior to crop samples sent to laboratory for evaluation.

The subject of a further experiment is beet plant. The experiment in a line: Pre-harvest foliar spraying of ethylene-releasing compound on beet leaves, betalain concentration of roots versus unsprayed controls. It is filed as in vivo, Beta vulgaris. An excerpt: In one embodiment, the method comprises the pre-harvest foliar spraying of an ethylene-releasing compound on a beet plant, wherein the pre-harvest foliar spraying of an ethylene-releasing compound leaves the mean betalain concentration in the roots of the treated plants increased by more than 200% when compared to controls without any spraying.
The method described herein may be used for commercially-relevant, large scale production of a betalain pigment, e.g., the large scale isolation from a beet crop plant. Accordingly, it may be that the isolation of betalains of step (iii) is done from at least 15 different harvested beet plants, more preferably from at least 100 different harvested beet plants, even more preferably from at least 500 different harvested beet plants, or such as from at least 1000 different harvested beet plants. It is evident that when at least 15 different harvested beet plants are used in isolation step (iii), then foliar spraying of ethylene-releasing compound (e.g., 2-Chloroethylphosphonic acid) of step (i) has been done on at least 15 different beet plants and in step (ii), at least 15 different crop plants have been harvested. As discussed above, the present inventors identified that by pre-harvest foliar spraying of 2-Chloroethylphosphonic acid (e.g., 2-Chloroethylphosphonic acid) on beet leaves the mean betalain concentration of treated plants increased by an increased amount when compared to controls without any spraying.
Preferably, the amount of isolated betalain pigment in step (iii) of the method is an amount of betalain pigment which is at least 15% higher (w/w), more preferably at least 20/a higher (w/w), even more preferably at least 25% higher (w/w), and most preferably at least 35% higher (w/w), as compared to the amount of betalain pigment that is isolated in a control experiment without use of the ethylene-releasing compound in step (i). The purpose of a control experiment is to analyze the effect of using ethylene-releasing compound (e.g. 2-Chloroethylphosphonic acid). […]

Setting [1] is: harvest 7, 10, 13, 16, 19, 22, 25, 26, 29 and 35 weeks after planting, every harvest point.

From US20230172132A1, “A METHOD FOR […] CONTENT IN A CROP PLANT” (SENSIENT COLORS, LLC, priority 2020, published 2023) come the findings set out here.

Each structure is given as a SMILES string.

In the case of `O=P(O)(O)CCCl` [Ethephon, 2-Chloroethylphosphonic acid], the Betanin in the experiment on red beet (Beta vulgaris) (beet variety Chioggia) was 320 mg/kg, dry basis; with red beet (Beta vulgaris) (red beet variety Nochowski), 9,400 mg/kg, dry basis; with red beet (Beta vulgaris) (red beet variety Red Cloud), 6,000 mg/kg, dry basis; with red beet (Beta vulgaris) (red beet variety Ruby Queen), 3,500 mg/kg, dry basis. Moreover, the Vulgaxanthin with red beet (Beta vulgaris) (beet variety Chioggia) is recorded as 380 mg/kg, dry basis; in the experiment with red beet (Beta vulgaris) (red beet variety Nochowski), 6,700 mg/kg, dry basis; in the experiment on red beet (Beta vulgaris) (red beet variety Red Cloud), 3,300 mg/kg, dry basis; in the experiment with red beet (Beta vulgaris) (red beet variety Ruby Queen), 800 mg/kg, dry basis. Also, the Anthocyanin levels result in the experiment with red beet (Beta vulgaris) (carrots, beets and radishes, spray 120 g/h and 360 g/h, harvest 3-4 weeks after spray) is “Enhanced”. In the experiment on beet plant (setting [1]), the “mean betanin concentration of treated roots” value is listed as “higher”. The “mean vulgaxanthin concentration of treated roots” value with beet plant (setting [1]) was “higher”. Besides, the “mean betalain concentration of treated plants compared to controls without any spraying” value with beet plant (pre-harvest foliar spraying on beet leaves) is “increased”.
